According to paper PMC12393501, “Recruitment of Mre11 to recombination sites during meiosis” (Research Square, 2025):
Ends that are not written are not given here.

What was measured:
[1] = test system: vegetative yeast cells expressing myc-tagged Mre11; test: Immunofluorescence of MMS-induced Mre11-myc foci, vegetative nuclear spreads; assay type: cell-based, Saccharomyces cerevisiae; settings: 5% 1,6-hexanediol, 4–5 minutes, vegetative spheroplasts
Experimental: (§1) Following standard protocols, strains were patched on YPG plates, mated and streaked on YPD plates, and selected diploid colonies grown in liquid YPD at 30°C, 250 rpm, overnight. For meiotic synchronization, diploid cultures grown overnight in YPD were transferred to YPA (1% yeast extract, 2% peptone, 1% potassium acetate) at OD600 0.2 and grown for 12–14 hours at 30°C, 250 rpm. […]
(§2) Slides were blocked with 90% FBS, 1× PBS for 1 hour at room temperature in a humid chamber and then incubated with primary antibody (mouse mAb anti-myc, 1:200 (2276S, Cell Signaling Technology), rabbit anti-phospho H2A-S129, 1:200 (ab15083, abcam)) diluted in 3% BSA, 1× PBS in a humid chamber for 2 hours at 37°C or overnight at 4°C. Slides were washed three times with 1× PBS in a Coplin jar, were incubated with secondary antibody (goat anti-mouse IgG Alexa Fluor™ Plus 488, 1:200 (A32723, Invitrogen), donkey anti-rabbit IgG Alexa Fluor™ 546, 1:200 (A10040, Invitrogen) diluted in 3% BSA, 1× PBS in a humid chamber at 37°C for 1 hour. Slides were washed in the dark three times for 5 mins with 1× PBS, mounted with Vectashield containing DAPI (Vector Labs). Images were captured on a Zeiss Axio Observer with a 100×/1.4 NA oil immersion objective and were analyzed in ImageJ.

[2] = test system: meiotic yeast cells expressing myc-tagged Mre11; test: Immunofluorescence of Mre11-myc foci, meiotic nuclear spreads; assay type: cell-based, Saccharomyces cerevisiae; settings: 5% 1,6-hexanediol, brief exposure, 4 hours after transfer to SPM
Experimental: as §1, §2

mre11-ΔC49 mutant = test: MMS and CPT sensitivity assay, mre11-ΔC49; assay type: cell-based, Saccharomyces cerevisiae; settings: ten-fold serial dilutions on YPD plates, two days at 30°C
Experimental: (§3) Following standard protocols, strains were patched on YPG plates, mated and streaked on YPD plates, and selected diploid colonies grown in liquid YPD at 30°C, 250 rpm, overnight. For meiotic synchronization, diploid cultures grown overnight in YPD were transferred to YPA (1% yeast extract, 2% peptone, 1% potassium acetate) at OD600 0.2 and grown for 12–14 hours at 30°C, 250 rpm. Once the cultures reached OD600 between 1.2–1.6, cells were washed once with prewarmed sterile water and immediately transferred to sporulation medium supplemented with amino acids (320 μL amino acid complementation media for 100 mL of sporulation media (SPM)) and were kept shaking at 30°C, 250 rpm during the entire meiotic time-course. For MMS and CPT (Sigma) sensitivity assays, serial dilutions of overnight cultures were spotted on freshly prepared YPD-MMS or YPD-CPT plates containing indicated percentage of MMS or CPT, respectively. Plates were grown for two days at 30°C. For immunofluorescence of vegetatively growing cells, overnight cultures were refreshed by diluting to OD600 0.2 and grown for 3–4 hours to reach OD600 1.2–1.4 before subjecting to MMS or MMS followed by 5% 1,6-hexanediol treatment. For 5% 1,6-hexanediol treatment, cells were first converted to spheroplasts and then treated with 5% 1,6-hexanediol for 4–5 minutes. […]

mre11-ΔIDR mutants = test: MMS and CPT sensitivity assay, mre11-ΔIDR; assay type: cell-based, Saccharomyces cerevisiae; settings: ten-fold serial dilutions on YPD plates, two days at 30°C
Experimental: as §3

Mer2 [3] = test: Colocalization of Mre11 with Mer2 condensates in vitro; assay type: binding, Saccharomyces cerevisiae
Experimental: Proteins were diluted to a 10× stock of their appropriate working concentrations in their respective storage buffers. […] Unless specified otherwise, all reactions contained 400 nM ^Alexa488Mre11 or 100 nM ^eGFPMRX. A typical 20 μL binding reaction contained 2 μL protein of 10× stock of indicated concentration, 10 μL of 2× reaction buffer, and 150 ng of supercoiled pUC19 (5.7 nM). Typical reactions were assembled at 30°C for 30 mins with gentle mixing every 5 mins, unless mentioned otherwise. 5 μL was dropped onto a microscope slide and covered with a coverslip. All images were captured on a Zeiss Axio Observer with a 100×/1.4 NA oil immersion objective except for images provided in Figure 4G which were captured on Leica Stellaris DMI 8 confocal microscope with a 63x/1.2 NA water immersion objective. Images were analyzed with ImageJ using a custom-made script. In brief, 129.24 × 129.24-μm (2048 × 2048-pixel) images were thresholded to mean intensity of the background plus three times the standard deviation of the background. Masked foci were counted and the intensity inside the focus mask was integrated. Data points represent averages of at least 8–10 images per sample. Data were analyzed using Graphpad Prism 10.4.0.

pUC19 plasmid DNA [4] = test: In vitro condensation assay, MRX complex
Experimental: (§4) Proteins were diluted to a 10× stock of their appropriate working concentrations in their respective storage buffers. Reactions were performed in a buffer containing 25 mM HEPES-HCl (pH 7.5), 2 mM DTT, 1 mg/ml BSA, 5% glycerol, 5 mM MgCl2, 5% PEG-3350, and NaCl. Considering the salt contributed by the protein dilution buffer, final concentration of NaCl in a reaction was adjusted to 120 mM. Unless specified otherwise, all reactions contained 400 nM ^Alexa488Mre11 or 100 nM ^eGFPMRX. A typical 20 μL binding reaction contained 2 μL protein of 10× stock of indicated concentration, 10 μL of 2× reaction buffer, and 150 ng of supercoiled pUC19 (5.7 nM). Typical reactions were assembled at 30°C for 30 mins with gentle mixing every 5 mins, unless mentioned otherwise. 5 μL was dropped onto a microscope slide and covered with a coverslip. All images were captured on a Zeiss Axio Observer with a 100×/1.4 NA oil immersion objective except for images provided in Figure 4G which were captured on Leica Stellaris DMI 8 confocal microscope with a 63x/1.2 NA water immersion objective. Images were analyzed with ImageJ using a custom-made script. In brief, 129.24 × 129.24-μm (2048 × 2048-pixel) images were thresholded to mean intensity of the background plus three times the standard deviation of the background. Masked foci were counted and the intensity inside the focus mask was integrated. Data points represent averages of at least 8–10 images per sample. Data were analyzed using Graphpad Prism 10.4.0.

pUC19 plasmid DNA [5] = test: In vitro condensation assay, Mre11; settings: for Condensate formation: in the presence of plasmid DNA (pUC19), pH 7.5, 120 mM NaCl, 30°C, fluorescence microscopy
Experimental: as §4

pUC19 plasmid = test: Gel shift assay DNA binding; settings: 1 nM pUC19, pH 7.5, 100 mM NaCl, 5 mM EDTA, 30°C for 30 mins
Experimental: Proteins were diluted to their appropriate working concentrations in their respective storage buffers. […] Reactions were assembled at 30°C for 30 mins and resolved in a 1% agarose (SeaKem LE Agarose, Lonza) at 60 V for 120 mins at 4°C. Gels were stained with SYBR Gold Nucleic Acid Gel Stain (S11497, Invitrogen) for 40 mins and visualized with Amersham Typhoon biomolecular imager (Cytiva).

Mer2 [6] = test: Yeast two-hybrid Mer2-Mre11 interaction; assay type: binding, Saccharomyces cerevisiae; settings: SC-Leu-Ura-His + 25 mM 3-AT, 4–5 days at 30°C; at least four independent transformants
Experimental: Bait and prey plasmids were co-transformed into yWL365 using the standard ‘LiAc’-based transformation and plated on SC-Leu-Ura selective media. At least four independent transformants were tested for Mer2-Mre11 interaction by spotting a dilution series on SC-Leu- Ura-His + 25 mM 3-AT (3-amino-1,2,4-triazole) and growing for 4–5 days at 30°C.

OCCCCCCO [1,6-hexanediol]
Effect on MMS-induced Mre11 foci [1]: readily dissolved MMS-induced foci, which instead coalesced into a few aggregates of high intensity | Effect on meiotic Mre11 foci [2]: disassembles these foci

CC[C@@]1(O)C(=O)OCc2c1cc1n(c2=O)Cc2cc3ccccc3nc2-1 [CPT, camptothecin]
Sensitivity of mre11-ΔC49 mutant to treatment (mre11-ΔC49 mutant): resistant | Sensitivity of mre11-ΔIDR mutants relative to wild type (mre11-ΔIDR mutants): as resistant to MMS or CPT as wild-type cells

COS(C)(=O)=O [MMS, methylmethanesulfonate]
Sensitivity of mre11-ΔC49 mutant to treatment (mre11-ΔC49 mutant): resistant | Sensitivity of mre11-ΔIDR mutants relative to wild type (mre11-ΔIDR mutants): as resistant to MMS or CPT as wild-type cells

C-terminus of Mre11: mScarlet-labelled Mre11-C49 (SYGLLNGRKTKTKTRPAASTKTASRRGKGRASRTPKTDILGSLLAKKRK; also: mScarlet tag; UniProt P32829 644-692, looked up, fragment)
Condensate formation of the C-terminus without Mer2 (Mer2 [3]; 800 nM mScarlet-Mre11-C49, control lacking eGFP-Mer2): does not form condensates independently | Localization in the presence of Mer2 condensates (Mer2 [3]; 800 nM mScarlet-Mre11-C49 and 200 nM eGFP-Mer2, 30 minutes): forms a halo-like structure around Mer2 condensates

MRX: Mre11-Rad50-Xrs2 complex with an eGFP tag at the N-terminus of Mre11
Effect of crowding agents on condensation (pUC19 plasmid DNA [4]; 5% PEG-3350): promoted | Role of the Mre11 C-terminal extremity in focus formation of MRX (pUC19 plasmid DNA [4]; eGFP-tagged MRX, ΔC49): required for efficient focus formation | Condensate formation (pUC19 plasmid DNA [4]; in the presence of plasmid DNA (pUC19), pH 7.5, 120 mM NaCl, 30°C, fluorescence microscopy): form large clusters visible by fluorescence microscopy

Mre11: Alexa488-labeled or eGFP-tagged budding yeast Mre11 nuclease
Effect of crowding agents on condensation (pUC19 plasmid DNA [5]; 5% PEG-3350): promoted | Effect of divalent metal ions on condensation (pUC19 plasmid DNA [5]; divalent metal ions): enhanced | Condensate formation (pUC19 plasmid DNA [5]): form large clusters visible by fluorescence microscopy | Concentration above which foci intensity increases steeply (pUC19 plasmid DNA [5]; protein titration, pUC19 DNA): above 200 nM | Species of reduced electrophoretic mobility at higher protein concentration (pUC19 plasmid): formed complexes of reduced mobility at higher protein concentration | Colocalization with Mer2 (Mer2 [3]; 200 nM Alexa594-Mer2 and eGFP-Mre11 assembled separately 10 minutes, then mixed 1:1 for 30 minutes): nearly absolute colocalization

B1: truncation of the terminal 15 amino acids of Mre11: Mre11 lacking the terminal 15 amino acids (pGAD-C1-Mre11-ΔC15) (protein)
chain: MDYPDPDTIRILITTDNHVGYNENDPITGDDSWKTFHEVMMLAKNNNVDMVVQSGDLFHVNKPSKKSLYQVLKTLRLCCMGDKPCELELLSDPSQVFHYDEFTNVNYEDPNFNISIPVFGISGNHDDASGDSLLCPMDILHATGLINHFGKVIESDKIKVVPLLFQKGSTKLALYGLAAVRDERLFRTFKDGGVTFEVPTMREGEWFNLMCVHQNHTGHTNTAFLPEQFLPDFLDMVIWGHEHECIPNLVHNPIKNFDVLQPGSSVATSLCEAEAQPKYVFILDIKYGEAPKMTPIPLETIRTFKMKSISLQDVPHLRPHDKDATSKYLIEQVEEMIRDANEETKQKLADDGEGDMVAELPKPLIRLRVDYSAPSNTQSPIDYQVENPRRFSNRFVGRVANGNNVVQFYKKRSPVTRSKKSGINGTSISDRDVEKLFSESGGELEVQTLVNDLLNKMQLSLLPEVGLNEAVKKFVDKDEKTALKEFISHEISNEVGILSTNEEFLRTDDAEEMKALIKQVKRANSVRPTPPKENDETNFAFNGNGLDSFRSSNREVRTGSPDITQSHVDNESRITHISQAESSKPTSKPKRVRTATKKKIPAFSDSTVISDAENELGDNNDAQDDVDIDENDIIMVSTDEEDASYGLLNGRKTKTKTRPAASTKTASRRGKGRASRT
modifications: left off: Gal4 activation domain (from the vector pGAD-C1), end not stated, kept
Interaction with Mer2 (yeast two-hybrid) (Mer2 [6]): abolished the interaction with Mer2

B2: Mre11^IDR: purified eGFP-tagged Mre11 IDR alone (protein, UniProt P32829 524-677, looked up, fragment)
chain: NSVRPTPPKENDETNFAFNGNGLDSFRSSNREVRTGSPDITQSHVDNESRITHISQAESSKPTSKPKRVRTATKKKIPAFSDSTVISDAENELGDNNDAQDDVDIDENDIIMVSTDEEDASYGLLNGRKTKTKTRPAASTKTASRRGKGRASRT
modifications: IDR eGFP tag
notes: purified eGFP-tagged Mre11 IDR alone
Condensate formation (pUC19 plasmid DNA [5]): failed to form condensates | DNA binding compared to the WT or Mre11-ΔIDR (pUC19 plasmid): reduced DNA binding
